Measured values from patent US20170296616A1, “METHODS OF TREATING DEPRESSION USING NMDA MODULATORS” (Naurex, Inc., priority 2014, published 2017).
Residues, ends and D or L forms follow the SMILES beside them.

What was measured:
[1] = system: patients suffering with refractory depression; conditions: cited from earlier work; for change in Hamilton Depression Rating Score: patients with refractory depression; for side effects: reported for the NMDAR antagonists
[2] = system: subjects with MDD that had responded inadequately to another antidepressant agent; assay: Repeat dose study of adjunctive GLYX-13 in human subjects (randomized withdrawal design); type: in vivo; conditions: for reduction of CGI-I score: baseline 4.3-4.6
Method: A repeat dose study was conducted on human subjects using adjunctive dosing (patients were currently taking another antidepressant medication). Dose levels of 5 mg/kg and 10 mg/kg were used with weekly or biweekly dose during an initial, stabilization period, as shown in FIGS. 7A and 7B (showing typical design of randomized withdrawal maintenance study). The disposition of the subjects, as indicated in FIGS. 7A and 7B was 144 nonresponders and […], where of the responders (70 patients assigned to weekly dosing, 36 patients assigned to biweekly dosing, 55 patients randomized to placebo). […] The study was blinded to third party raters (HDRS-17) and to clinicians of the treatment group (CGI-S).
Methods. GLYX-13 was administered over 12 weeks to subjects who had responded inadequately to another antidepressant agent. Subjects continued taking the other antidepressant during the entire course of the study. The study was divided into 3 parts. During the first 6 weeks, subjects were randomized to receive GLYX-13 at 5 mg/kg IV or 10 mg/kg IV. Subjects returned to the clinic weekly. If subjects had reached clinical response (HDRS-17 reduced ≧50% from baseline) to GLYX-13 administered the previous week, placebo was administered weekly until relapse (HDRS-17 reduced <50% from baseline). At the 6th week of evaluation, subjects who had achieved response to GLYX-13 at some visit were assigned to weekly or biweekly dosing based on time to relapse during placebo administration and randomized to continue receiving GLYX-13 or placebo (randomized withdrawal) for a subsequent 6 weeks of dosing. At the end of the randomized withdrawal period, subjects received placebo injections for 4 weeks. Subjects were blind to the treatments. Third party evaluators blind to treatment and protocol were utilized. Treatment dose and interval were calculated by an interactive web-based response system based on a mathematical algorithm; site personnel were blinded to treatment.

[3] = system: long-term potentiation (LTP); assay: Long-term potentiation (LTP) after single or multiple bi-weekly doses (FIG. 3)
[4] = cited from earlier work
[5] = end of randomized withdrawal period, biweekly doses

Compound: C[C@@H]([C@@H](O)c1ccc(O)cc1)N1CCC(O)(c2ccccc2)CC1 [CPC-101,606]
- change in Hamilton Depression Rating Score [1]: significant reductions
- side effects [1]: reportedly severe

Compound: C[C@@H](O)[C@H](N)C(=O)N1CCC[C@H]1C(=O)N1CCC[C@H]1C(=O)N[C@H](C(N)=O)[C@@H](C)O [GLYX-13] (H-TPPT-NH2)
- improvements on HDRS scale during the rest period (randomized withdrawal) ([2]; FIG. 1, compared with the induction (stabilization) period): generally maintained
- improvements on Bech-6 scale during the rest period (randomized withdrawal) ([2]; FIG. 4, compared with the induction (stabilization) period): generally maintained
- improvements on CGI-S scale during the rest period ([2]; FIG. 5, Week 7 and Week 13): generally maintained
- subjects that relapsed more slowly ([2]; assigned to biweekly dosing in the randomized withdrawal period): 33%
- responders that relapsed within 2 weeks following cessation of GLYX-13 ([2]; assigned to weekly dosing in the randomized withdrawal period): Approximately 67%
- responders that relapsed quickly during early treatment ([2]; early treatment): About two-thirds
- responders that relapsed slowly, even during early treatment ([2]; early treatment): About one-third
- reduction of CGI-I score ([2]; end of randomized withdrawal period, 5 mg/kg IV weekly dose group): 2.5 ± 0.14
- percent of subjects that achieved remission ([2]; end of randomized withdrawal period, 5 mg/kg weekly group vs biweekly dose groups): not statistically different from the biweekly dose groups
- reduction of CGI-I score ([2]; end of randomized withdrawal period, 10 mg/kg IV group): 1.6±0.15
- subjects that reached remission (HDRS score <=7) ([2]; end of randomized withdrawal period, 10 mg/kg weekly): 42%
- subjects that achieved remission (HDRS score <=7) [2, 5]: 45%
- subjects that achieved response [2, 5]: 65%
- reduction of CGI-I score ([2]; end of randomized withdrawal period, biweekly groups): 2.5±0.12
- HDRS-17 score in responders ([2]; following 6 weeks of dosing, baseline 23.5±0.34, mean±S.E.M.): 10.3±0.65
- time after withdrawal of GLYX-13 without return of HDRS-17 score toward baseline ([2]; following 6 weeks of dosing, placebo thereafter): up to 10 weeks
- efficacy following forced relapse ([2]; repeated crossover GLYX-13 / placebo (FIG. 6)): Efficacy was reestablished following forced relapse
- side effects with repeated dosing ([2]; repeated dosing): without significant side effect
- tolerance with repeated dosing ([2]; repeated dosing): no tolerance apparent
- ultimate responders that showed response after one dose ([2]; stabilization phase, 5 or 10 mg/kg, after one dose): ~65%
- ultimate responders that showed response after three doses ([2]; stabilization phase, after three doses): ~85%
- ultimate responders that showed response after two doses ([2]; stabilization phase, after two doses): ~72%
- effect on long-term potentiation (LTP) ([3]; 24 hours and one week following a single dose): enhances long-term potentiation
- effect on long-term potentiation (LTP) ([3]; following multiple bi-weekly doses): persistently enhances LTP
- psychotomimetic side effects ([4]; compared with other drugs that target the NMDA receptor): lack the pyschotomimetic side effects
- antidepressant activity ([4]; in vivo): rapid-acting, robust, and sustained antidepressant activity

Compound: CNC1(c2ccccc2Cl)CCCCC1=O (stereo not drawn) [ketamine]
- change in Hamilton Depression Rating Score [1]: significant reductions
- side effects [1]: reportedly severe
